Literature values, collected in US20140243296A1, “Organic Compounds” (Jagotec AG, priority 2011, published 2014).

What was measured:
[1] = qualitative
[2] = molecular target: CYP 3A4 isoform (Homo sapiens, UniProt P08684); conditions: qualitative, prior-art knowledge
[3] = molecular target: P-glycoprotein (Pgp) (Homo sapiens, UniProt P08183); conditions: qualitative, prior-art knowledge
P-glycoprotein (Pgp), sequence (P08183 whole entry): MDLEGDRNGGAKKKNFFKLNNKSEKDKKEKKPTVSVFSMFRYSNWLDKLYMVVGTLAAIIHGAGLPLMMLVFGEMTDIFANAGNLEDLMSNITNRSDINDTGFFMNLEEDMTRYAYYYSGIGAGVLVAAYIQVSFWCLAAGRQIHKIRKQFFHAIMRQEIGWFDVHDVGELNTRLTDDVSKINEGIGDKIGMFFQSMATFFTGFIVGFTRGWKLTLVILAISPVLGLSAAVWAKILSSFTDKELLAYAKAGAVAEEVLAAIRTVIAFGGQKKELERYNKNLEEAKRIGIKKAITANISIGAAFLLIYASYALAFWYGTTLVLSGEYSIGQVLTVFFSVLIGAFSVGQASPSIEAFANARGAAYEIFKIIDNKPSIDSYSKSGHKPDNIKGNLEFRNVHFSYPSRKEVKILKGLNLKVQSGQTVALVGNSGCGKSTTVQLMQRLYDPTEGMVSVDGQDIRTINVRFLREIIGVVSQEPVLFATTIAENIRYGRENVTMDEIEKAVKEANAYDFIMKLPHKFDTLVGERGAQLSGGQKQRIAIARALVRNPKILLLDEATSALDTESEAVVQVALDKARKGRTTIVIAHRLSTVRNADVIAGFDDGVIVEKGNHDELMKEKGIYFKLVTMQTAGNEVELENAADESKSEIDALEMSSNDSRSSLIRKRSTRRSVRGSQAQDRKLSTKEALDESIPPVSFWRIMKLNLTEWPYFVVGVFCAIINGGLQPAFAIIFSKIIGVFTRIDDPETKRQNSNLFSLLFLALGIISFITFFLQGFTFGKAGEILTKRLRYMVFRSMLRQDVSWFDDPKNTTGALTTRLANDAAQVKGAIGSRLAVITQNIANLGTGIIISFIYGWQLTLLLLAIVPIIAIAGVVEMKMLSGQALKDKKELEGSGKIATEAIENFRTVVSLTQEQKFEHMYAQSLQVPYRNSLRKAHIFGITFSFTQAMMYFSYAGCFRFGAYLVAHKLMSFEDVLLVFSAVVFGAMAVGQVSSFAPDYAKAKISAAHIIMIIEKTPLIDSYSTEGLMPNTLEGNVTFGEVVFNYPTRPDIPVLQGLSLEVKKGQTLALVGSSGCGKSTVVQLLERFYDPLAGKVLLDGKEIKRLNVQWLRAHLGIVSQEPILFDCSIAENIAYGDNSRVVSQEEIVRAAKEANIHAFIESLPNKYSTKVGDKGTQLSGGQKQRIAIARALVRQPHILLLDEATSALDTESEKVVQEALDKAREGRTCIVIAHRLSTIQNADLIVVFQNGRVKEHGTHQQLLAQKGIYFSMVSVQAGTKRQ

CYP 3A4 isoform, sequence (P08684 whole entry, canonical isoform): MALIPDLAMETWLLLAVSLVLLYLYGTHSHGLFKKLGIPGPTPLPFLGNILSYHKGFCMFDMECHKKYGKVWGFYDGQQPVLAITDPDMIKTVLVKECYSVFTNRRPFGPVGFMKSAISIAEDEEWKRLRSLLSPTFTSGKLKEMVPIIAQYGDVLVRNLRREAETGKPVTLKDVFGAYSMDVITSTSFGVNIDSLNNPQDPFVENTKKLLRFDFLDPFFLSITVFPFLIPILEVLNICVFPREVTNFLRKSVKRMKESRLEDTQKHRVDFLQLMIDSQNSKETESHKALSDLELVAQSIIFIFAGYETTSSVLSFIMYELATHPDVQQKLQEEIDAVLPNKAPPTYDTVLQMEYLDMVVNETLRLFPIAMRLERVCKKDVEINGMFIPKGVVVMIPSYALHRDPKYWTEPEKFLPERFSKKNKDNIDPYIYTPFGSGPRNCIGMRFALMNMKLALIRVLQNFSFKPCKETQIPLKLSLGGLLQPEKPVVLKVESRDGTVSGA

SMILES | inhibition of / affinity towards CYP, particularly CYP 3A4 isoform [2] | further results
CC(C)CN(C[C@@H](O)[C@H](Cc1ccccc1)NC(=O)O[C@H]1CO[C@H]2OCC[C@H]21)S(=O)(=O)c1ccc(N)cc1 [Darunavir, darunavir] |  | solubility [1]: poorly soluble
CC(C)(C)NC(=O)[C@@H]1C[C@@H]2CCCC[C@@H]2CN1C[C@@H](O)[C@H](Cc1ccccc1)NC(=O)[C@H](CC(N)=O)NC(=O)c1ccc2ccccc2n1 [saquinavir] | weak inhibitors | 
CC(C)(C)NC(=O)[C@@H]1CN(Cc2cccnc2)CCN1C[C@@H](O)C[C@@H](Cc1ccccc1)C(=O)N[C@H]1c2ccccc2C[C@H]1O [indinavir] |  | inhibitory effect on / affinity for Pgp [3]: substantially no inhibitory effect

Further lines, with some results ahead:

inhibition of / affinity towards CYP, particularly CYP 3A4 isoform [2] | SMILES | further results
modest inhibition | Cc1c(O)cccc1C(=O)N[C@@H](CSc1ccccc1)[C@H](O)CN1C[C@H]2CCCC[C@H]2C[C@H]1C(=O)NC(C)(C)C [nelfinavir] | 
weak inhibitors | CC(C)CN(C[C@@H](O)[C@H](Cc1ccccc1)NC(=O)O[C@H]1CCOC1)S(=O)(=O)c1ccc(N)cc1 [amprenavir] | 
